Measured values as given in patent US12466781B2, “Thyromimetics” (Autobahn Therapeutics, Inc., priority 2019, dated 2025).

What was measured:
TRβ = molecular target: T1, TRβ (Homo sapiens, UniProt P10828); assay: Thyroid-hormone reporter-gene assay (TRβ-Gal4 hybrid, luciferase, HEK293); type: cell-based; settings: Table 2; for T3-SI (selectivity index): calculated as EC50 (TRα)/EC50 (TRβ); for EC50: reporter cells, 24 hr incubation, read-out: TRβ (EC50)
T1 construct: expressed in transfected cells; host or cells: HEK293
T1 sequence (P10828 217-461 limits assumed): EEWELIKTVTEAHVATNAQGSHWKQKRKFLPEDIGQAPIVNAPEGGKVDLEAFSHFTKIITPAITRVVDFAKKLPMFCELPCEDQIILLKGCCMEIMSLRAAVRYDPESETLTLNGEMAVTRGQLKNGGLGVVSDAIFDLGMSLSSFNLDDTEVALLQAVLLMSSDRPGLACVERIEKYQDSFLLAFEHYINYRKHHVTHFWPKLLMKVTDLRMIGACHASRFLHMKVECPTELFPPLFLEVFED
Experimental: (§1) Compounds were tested for thyroid-hormone receptor activity using TR reporter-gene assays. Reporter cells used in the assays express a TR-receptor hybrid (either TRα or TRβ) in which the native N-terminal DNA binding domain (DBD) has been replaced with that of the yeast Gal4 DBD. The reporter gene, firefly luciferase, is functionally linked to the Gal4 upstream activation sequence (UAS). Both cell lines were derived from human embryonic kidney (HEK293).
(§2) Step 1: A suspension of reporter cells was prepared in cell recovery medium containing 10% charcoal-stripped FBS, and dispensed into assay plates. The plates were pre-incubated for 6 hours in a cell culture incubator (37° C./5% CO2/85% humidity).
(§3) These intermediate stocks were subsequently diluted directly into compound screening medium containing 10% charcoal-stripped FBS to generate “2×-concentration” treatment media (containing 0.2, 0.4 or 0.8% DMSO).
(§4) Step 3: At the end of the pre-incubation period, culture media were discarded from the assay plates, and all wells received 100 μl of compound screening medium. 100 μl of each of the previously prepared “2×-concentration” treatment media were dispensed into duplicate assay wells, thereby achieving the desired final treatment concentrations. The final concentration of DMSO in all assay wells was 0.1, 0.2 or 0.4%. Assay plates were incubated for 24 hr in a cell culture incubator (37° C./5% CO2/85% humidity).
(§5) Step 4: At the 24 h assay endpoint, treatment media were discarded and 100 μl/well of luciferase detection reagent was added. Relative luminometer units (RLUs) were quantified from each assay well.

TRα = molecular target: T2, TRα (Homo sapiens, UniProt P10827); assay: Thyroid-hormone reporter-gene assay (TRα-Gal4 hybrid, luciferase, HEK293); type: cell-based; settings: reporter cells, 24 hr incubation; Table 2; read-out: TRα (EC50)
T2 construct: expressed in transfected cells; host or cells: HEK293
T2 sequence (P10827 163-410 isoform P10827-2 limits assumed): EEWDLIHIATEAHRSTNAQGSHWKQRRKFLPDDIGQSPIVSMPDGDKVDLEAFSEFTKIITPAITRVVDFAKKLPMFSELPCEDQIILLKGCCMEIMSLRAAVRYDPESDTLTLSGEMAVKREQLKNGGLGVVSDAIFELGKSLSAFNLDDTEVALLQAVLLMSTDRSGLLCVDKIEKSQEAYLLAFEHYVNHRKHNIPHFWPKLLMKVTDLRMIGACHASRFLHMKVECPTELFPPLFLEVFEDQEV
Experimental: as §1, §2, §3, §4, §5

| Structure (SMILES) | T3-SI (selectivity index) (TRβ) | EC50 (TRβ) [nM] | EC50 (TRα) [nM] |
| --- | --- | --- | --- |
| CCC(c1ccc(F)cc1)c1c(O)ccc(Cc2c(Cl)cc(OCC(=O)O)cc2Cl)c1F (stereo not drawn) [Compound 32, 2-(3,5-dichloro-4-(2-fluoro-3-(1-(4-fluorophenyl)propyl)-4-hydroxybenzyl)phenoxy)acetic acid] | ++ (3×<T3-SI≤30×) | 10 to 100 | 100 to 1000 |
| CCCC(c1ccc(F)cc1)c1c(O)ccc(Cc2c(Cl)cc(OCC(=O)O)cc2Cl)c1F (stereo not drawn) [Compound 34, 2-(3,5-dichloro-4-(2-fluoro-3-(1-(4-fluorophenyl)butyl)-4-hydroxybenzyl)phenoxy)acetic acid] | ++ (3×<T3-SI≤30×) | 100 to 1000 | > 1000 |
| Cc1cc(OCC(=O)O)cc(Cl)c1Cc1ccc(O)c(C(C)C)c1F [Compound 36, 2-(3-chloro-4-(2-fluoro-4-hydroxy-3-isopropylbenzyl)-5-methylphenoxy)acetic acid] | ++ (3×<T3-SI≤30×) | 10 to 100 | 10 to 100 |
| CC(C)c1c(O)ccc(Cc2c(Cl)cc(OCC(=O)O)cc2Br)c1F [Compound 40, 2-(3-bromo-5-chloro-4-(2-fluoro-4-hydroxy-3-isopropylbenzyl)phenoxy)acetic acid] | ++ (3×<T3-SI≤30×) | < 10 | < 10 |
| CCc1cc(OCC(=O)O)cc(Cl)c1Cc1ccc(O)c(C(C)C)c1F [Compound 43, 2-(3-chloro-5-ethyl-4-(2-fluoro-4-hydroxy-3-isopropylbenzyl)phenoxy)acetic acid] | ++ (3×<T3-SI≤30×) | 10 to 100 | 10 to 100 |
| C=C(C)c1cc(OCC(=O)O)cc(Cl)c1Cc1ccc(O)c(C(C)C)c1F [Compound 46, 2-(3-chloro-4-(2-fluoro-4-hydroxy-3-isopropylbenzyl)-5-(prop-1-en-2-yl)phenoxy)acetic acid] | ++ (3×<T3-SI≤30×) | < 10 | 10 to 100 |
| CC(C)c1cc(OCC(=O)O)cc(Cl)c1Cc1ccc(O)c(C(C)C)c1F [Compound 47, 2-(3-chloro-4-(2-fluoro-4-hydroxy-3-isopropylbenzyl)-5-isopropylphenoxy)acetic acid] | ++ (3×<T3-SI≤30×) | < 10 | < 10 |
| CC(C)c1c(O)ccc(Cc2c(Cl)cc(OCC(=O)O)cc2Cl)c1Cl [Compound 49, 2-(3,5-dichloro-4-(2-chloro-4-hydroxy-3-isopropylbenzyl)phenoxy)acetic acid] | ++ (3×<T3-SI≤30×) | 10 to 100 | 100 to 1000 |
| COc1c(Cc2c(Cl)cc(OCC(=O)O)cc2Cl)ccc(O)c1C(C)C [Compound 54, 2-(3,5-dichloro-4-(4-hydroxy-3-isopropyl-2-methoxybenzyl)phenoxy)acetic acid] | ++ (3×<T3-SI≤30×) | 100 to 1000 | > 1000 |
| Cc1cc(OCC(=O)O)c(F)c(C)c1Cc1ccc(O)c(C(C)C)c1 [Compound 58, 2-(2-fluoro-4-(4-hydroxy-3-isopropylbenzyl)-3,5-dimethylphenoxy)acetic acid] | +++ (T3-SI>30×) | 10 to 100 | 100 to 1000 |
| C=Cc1c(F)c(OCC(=O)O)cc(Cl)c1Cc1ccc(O)c(C(C)C)c1 [Compound 67, 2-(5-chloro-2-fluoro-4-(4-hydroxy-3-isopropylbenzyl)-3-vinylphenoxy)acetic acid] | ++ (3×<T3-SI≤30×) | 10 to 100 | 100 to 1000 |
| CCc1c(F)c(OCC(=O)O)cc(Cl)c1Cc1ccc(O)c(C(C)C)c1 [Compound 69, 2-(5-chloro-3-ethyl-2-fluoro-4-(4-hydroxy-3-isopropylbenzyl)phenoxy)acetic acid] | ++ (3×<T3-SI≤30×) | 100 to 1000 | > 1000 |
| CC(C)c1cc(Cc2c(Cl)cc(OCC(=O)O)c(F)c2C(C)C)ccc1O [Compound 73, 2-(5-chloro-2-fluoro-4-(4-hydroxy-3-isopropylbenzyl)-3-isopropylphenoxy)acetic acid] | +++ (T3-SI>30×) | 100 to 1000 | > 1000 |
| C=Cc1cc(OCC(=O)O)c(F)c(Cl)c1Cc1ccc(O)c(C(C)C)c1 [Compound 75, 2-(3-chloro-2-fluoro-4-(4-hydroxy-3-isopropylbenzyl)-5-vinylphenoxy)acetic acid] | +++ (T3-SI>30×) | 10 to 100 | 100 to 1000 |
| CCc1cc(OCC(=O)O)c(F)c(Cl)c1Cc1ccc(O)c(C(C)C)c1 [Compound 77, 2-(3-chloro-5-ethyl-2-fluoro-4-(4-hydroxy-3-isopropylbenzyl)phenoxy)acetic acid] | ++ (3×<T3-SI≤30×) | 10 to 100 | 10 to 100 |
| C=C(C)c1cc(OCC(=O)O)c(F)c(Cl)c1Cc1ccc(O)c(C(C)C)c1 [Compound 79, 2-(3-chloro-2-fluoro-4-(4-hydroxy-3-isopropylbenzyl)-5-(prop-1-en-2-yl)phenoxy)acetic acid] | +++ (T3-SI>30×) | 10 to 100 | 100 to 1000 |
| CC(C)c1cc(Cc2c(C(C)C)cc(OCC(=O)O)c(F)c2Cl)ccc1O [Compound 81, 2-(3-chloro-2-fluoro-4-(4-hydroxy-3-isopropylbenzyl)-5-isopropylphenoxy)acetic acid] | ++ (3×<T3-SI≤30×) | 10 to 100 | 10 to 100 |
| O=C(O)COc1cc(Cl)c(Cc2ccc(O)c(Cc3ccc(F)cc3)c2)c(Cl)c1F [Compound 83, 2-(3,5-dichloro-2-fluoro-4-(3-(4-fluorobenzyl)-4-hydroxybenzyl)phenoxy)acetic acid] | +++ (T3-SI>30×) | 10 to 100 | 100 to 1000 |
| CCCC(c1ccc(F)cc1)c1cc(Cc2c(Cl)cc(OCC(=O)O)c(F)c2Cl)ccc1O (stereo not drawn) [Compound 85, 2-(3,5-dichloro-2-fluoro-4-(3-(1-(4-fluorophenyl)butyl)-4-hydroxybenzyl)phenoxy)acetic acid] | +++ (T3-SI>30×) | 100 to 1000 | > 1000 |
| CC(C)c1cc(Cc2c(Cl)cc(OCC(=O)O)c(Cl)c2Cl)ccc1O [Compound 89, 2-(2,3,5-trichloro-4-(4-hydroxy-3-isopropylbenzyl)phenoxy)acetic acid] | ++ (3×<T3-SI≤30×) | 10 to 100 | 10 to 100 |
| Cc1c(OCC(=O)O)cc(Cl)c(Cc2ccc(O)c(C(C)C)c2)c1Cl [Compound 91, 2-(3,5-dichloro-4-(4-hydroxy-3-isopropylbenzyl)-2-methylphenoxy)acetic acid] | +++ (T3-SI>30×) | 10 to 100 | 100 to 1000 |
| Cc1cc(OCC(=O)O)c(F)c(C)c1Cc1ccc(O)c(C(C)C)c1F [Compound 93, 2-(2-fluoro-4-(2-fluoro-4-hydroxy-3-isopropylbenzyl)-3,5-dimethylphenoxy)acetic acid] | +++ (T3-SI>30×) | 10 to 100 | 100 to 1000 |
| CC(C)c1c(O)ccc(Cc2c(Cl)cc(OCC(=O)O)c(F)c2Cl)c1F [Compound 97, 2-(3,5-dichloro-2-fluoro-4-(2-fluoro-4-hydroxy-3-isopropylbenzyl)phenoxy)acetic acid] | ++ (3×<T3-SI≤30×) | < 10 | 10 to 100 |
| O=C(O)COc1cc(Cl)c(Cc2ccc(O)c(-c3cc(OC(F)F)ccc3F)c2F)c(Cl)c1F [Compound 101, 2-(3,5-dichloro-4-((5′-(difluoromethoxy)-2,2′-difluoro-6-hydroxy-[1,1′-biphenyl]-3-yl)methyl)-2-fluorophenoxy)acetic acid] | ++ (3×<T3-SI≤30×) | 100 to 1000 | > 1000 |
| O=C(O)COc1cc(Cl)c(Cc2ccc(O)c(Cc3ccc(F)cc3)c2F)c(Cl)c1F [Compound 103, 2-(3,5-dichloro-2-fluoro-4-(2-fluoro-3-(4-fluorobenzyl)-4-hydroxybenzyl)phenoxy)acetic acid] | +++ (T3-SI>30×) | 10 to 100 | 10 to 100 |
| CC(c1ccc(F)cc1)c1c(O)ccc(Cc2c(Cl)cc(OCC(=O)O)c(F)c2Cl)c1F (stereo not drawn) [Compound 107, 2-(3,5-dichloro-2-fluoro-4-(2-fluoro-3-(1-(4-fluorophenyl)ethyl)-4-hydroxybenzyl)phenoxy)acetic acid] | ++ (3×<T3-SI≤30×) | 10 to 100 | 10 to 100 |
